Patent publication US20250145609A1, “3-SUBSTITUTED PYRIDAZINE COMPOUNDS AS SMARCA2 AND/OR SMARCA4 DEGRADERS” (Aurigene Oncology Limited, priority 2022, published 2025)
pEC50: −log10 of the molar value.

How the values were obtained:
Type in all cases: cell-based
VCaP cells = test: Anti proliferative activity in VCaP cell line by CellTiter Glo assay; conditions: Homo sapiens, VCaP, 192 h, 8 days incubation, CellTiter Glo luminescence
Experimental: Example-P1: Determination of Anti Proliferative Activity of Compounds in Cell Lines VCaP by Cell Titer Glo©(Promega) Assay
VCaP (ATCC CRL-2876) cells were seeded in 96 well plate flat black clear bottom plates (Corning, Cat. No 3904) using complete DMEM Medium. Next day, compounds listed in the present invention were added to cells from 10 mM stocks made in DMSO (Sigma Cat no. D2650). Each concentration of compound was tested in triplicate with DMSO concentration at a final percentage not exceeding 0.3 in the cells. After the incubation of VCaP cells with compound for 8 days assay was terminated using 50 μl of CellTiter Glo© reagent (Promega, Cat. no G7572). CellTiter-Glo® Luminescent reagent determines the number of viable cells based on quantitation of ATP present which is an indicator of cell number and metabolic activity. Luminescence readings were taken in Victor-3 instrument. Percent inhibition of proliferation was calculated using formula, % inhibition=100−(luminescence value of test/luminescence value of DMSO control)*100. DMSO control (0%)=Cells in complete media with DMSO; blank=Media alone containing DMSO. EC50 was calculated using graph pad prism software.
Herein the group “A” refers to EC50 values lower than l0 nM, group “B” refers to EC50 values between l0 nM-100 nM (both inclusive) and group “C” refers to EC50 values greater than 100 nM.

SMARCA4 = target: T1, SMARCA4 (Homo sapiens, UniProt P51532); test: SMARCA4 degradation in VCaP cells by Western blot; conditions: at 100 nM; for Percent SMARCA4 degradation at 0.1 µM: VCaP, 16 h; for Percent degradation SMARCA4: 16 hours
T1 construct: endogenous in cells; host or cells: VCaP (ATCC CRL-2876)
Experimental: (§1) Example-P2: Determination of SMARCA2 and SMARCA4 Degradation in VCaP Cells by Western Blot
(§2) VCaP (ATCC CRL-2876) was plated in 6 well plates using complete Dulbecco's Modified Eagle's Medium. On the third day, compounds of present invention were added to cells from 10 mM stocks made in DMSO (Sigma Cat no. D2650). Each compound was tested at 100 nM concentration with DMSO not exceeding final percentage of 0.3 in the cells. Cells were incubated with the compound for 16 hours followed by harvesting with 1×RIPA lysis buffer (Thermo Fischer, catalogue number #89900) containing protease inhibitor cocktail (Sigma catalogue number #P-8340). Equal amount of protein was loaded on SDS PAGE gel for electrophoresis. Western blot was carried out for detection of either SMARCA2 (Cell signalling technologies, catalogue number #11966) or SMARCA4 antibody (Cell signalling technologies, catalogue number #52251). Beta-Tubulin antibody (Cell signalling technologies, catalogue number #86298) was used as loading control. Percentage of SMARCA2 or SMARCA4 degradation was calculated by using formula: […]

SMARCA2 = target: T2, SMARCA2 (Homo sapiens, UniProt P51531); test: SMARCA2 degradation in VCaP cells by Western blot; conditions: at 100 nM, 16 hours
T2 construct: endogenous in cells; host or cells: VCaP (ATCC CRL-2876)
Experimental: as §1, §2

T2 sequence (P51531 whole entry): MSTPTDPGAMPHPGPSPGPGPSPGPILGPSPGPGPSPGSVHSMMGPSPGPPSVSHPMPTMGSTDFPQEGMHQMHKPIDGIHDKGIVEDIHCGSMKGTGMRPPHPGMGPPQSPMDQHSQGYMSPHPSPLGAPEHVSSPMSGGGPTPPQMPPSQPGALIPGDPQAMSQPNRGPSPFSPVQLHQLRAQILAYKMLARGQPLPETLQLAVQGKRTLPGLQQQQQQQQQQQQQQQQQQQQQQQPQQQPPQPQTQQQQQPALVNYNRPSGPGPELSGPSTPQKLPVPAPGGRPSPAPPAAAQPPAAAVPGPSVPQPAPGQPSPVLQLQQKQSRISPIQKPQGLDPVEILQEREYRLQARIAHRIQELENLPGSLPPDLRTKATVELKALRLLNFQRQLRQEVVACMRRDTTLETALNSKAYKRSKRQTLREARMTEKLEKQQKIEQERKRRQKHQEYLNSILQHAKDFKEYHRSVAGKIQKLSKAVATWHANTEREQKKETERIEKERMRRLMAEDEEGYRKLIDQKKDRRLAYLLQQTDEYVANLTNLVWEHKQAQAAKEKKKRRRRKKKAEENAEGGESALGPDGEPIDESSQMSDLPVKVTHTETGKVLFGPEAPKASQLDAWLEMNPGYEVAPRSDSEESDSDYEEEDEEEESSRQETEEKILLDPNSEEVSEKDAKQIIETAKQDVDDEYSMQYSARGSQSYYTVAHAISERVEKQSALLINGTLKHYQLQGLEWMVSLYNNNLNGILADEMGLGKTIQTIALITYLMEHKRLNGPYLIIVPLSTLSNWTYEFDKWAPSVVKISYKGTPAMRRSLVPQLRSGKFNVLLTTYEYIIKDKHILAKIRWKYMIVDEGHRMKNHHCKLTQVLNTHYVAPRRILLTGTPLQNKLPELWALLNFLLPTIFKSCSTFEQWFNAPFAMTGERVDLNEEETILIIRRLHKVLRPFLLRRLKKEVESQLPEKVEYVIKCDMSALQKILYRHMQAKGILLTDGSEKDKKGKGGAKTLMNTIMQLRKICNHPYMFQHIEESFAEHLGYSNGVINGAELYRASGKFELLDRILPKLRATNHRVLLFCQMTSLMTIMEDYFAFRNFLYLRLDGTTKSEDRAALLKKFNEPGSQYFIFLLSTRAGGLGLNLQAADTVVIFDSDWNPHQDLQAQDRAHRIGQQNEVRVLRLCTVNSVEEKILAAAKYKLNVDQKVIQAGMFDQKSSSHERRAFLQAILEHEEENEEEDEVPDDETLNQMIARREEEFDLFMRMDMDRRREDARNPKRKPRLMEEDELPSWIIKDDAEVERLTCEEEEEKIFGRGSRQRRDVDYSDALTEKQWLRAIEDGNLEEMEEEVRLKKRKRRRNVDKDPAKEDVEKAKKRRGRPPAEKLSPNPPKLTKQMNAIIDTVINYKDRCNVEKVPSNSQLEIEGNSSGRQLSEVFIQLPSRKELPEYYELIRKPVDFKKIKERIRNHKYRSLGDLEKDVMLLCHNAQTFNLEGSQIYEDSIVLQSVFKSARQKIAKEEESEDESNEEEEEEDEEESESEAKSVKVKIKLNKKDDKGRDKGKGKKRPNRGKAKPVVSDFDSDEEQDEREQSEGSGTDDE
T1 sequence (P51532 whole entry): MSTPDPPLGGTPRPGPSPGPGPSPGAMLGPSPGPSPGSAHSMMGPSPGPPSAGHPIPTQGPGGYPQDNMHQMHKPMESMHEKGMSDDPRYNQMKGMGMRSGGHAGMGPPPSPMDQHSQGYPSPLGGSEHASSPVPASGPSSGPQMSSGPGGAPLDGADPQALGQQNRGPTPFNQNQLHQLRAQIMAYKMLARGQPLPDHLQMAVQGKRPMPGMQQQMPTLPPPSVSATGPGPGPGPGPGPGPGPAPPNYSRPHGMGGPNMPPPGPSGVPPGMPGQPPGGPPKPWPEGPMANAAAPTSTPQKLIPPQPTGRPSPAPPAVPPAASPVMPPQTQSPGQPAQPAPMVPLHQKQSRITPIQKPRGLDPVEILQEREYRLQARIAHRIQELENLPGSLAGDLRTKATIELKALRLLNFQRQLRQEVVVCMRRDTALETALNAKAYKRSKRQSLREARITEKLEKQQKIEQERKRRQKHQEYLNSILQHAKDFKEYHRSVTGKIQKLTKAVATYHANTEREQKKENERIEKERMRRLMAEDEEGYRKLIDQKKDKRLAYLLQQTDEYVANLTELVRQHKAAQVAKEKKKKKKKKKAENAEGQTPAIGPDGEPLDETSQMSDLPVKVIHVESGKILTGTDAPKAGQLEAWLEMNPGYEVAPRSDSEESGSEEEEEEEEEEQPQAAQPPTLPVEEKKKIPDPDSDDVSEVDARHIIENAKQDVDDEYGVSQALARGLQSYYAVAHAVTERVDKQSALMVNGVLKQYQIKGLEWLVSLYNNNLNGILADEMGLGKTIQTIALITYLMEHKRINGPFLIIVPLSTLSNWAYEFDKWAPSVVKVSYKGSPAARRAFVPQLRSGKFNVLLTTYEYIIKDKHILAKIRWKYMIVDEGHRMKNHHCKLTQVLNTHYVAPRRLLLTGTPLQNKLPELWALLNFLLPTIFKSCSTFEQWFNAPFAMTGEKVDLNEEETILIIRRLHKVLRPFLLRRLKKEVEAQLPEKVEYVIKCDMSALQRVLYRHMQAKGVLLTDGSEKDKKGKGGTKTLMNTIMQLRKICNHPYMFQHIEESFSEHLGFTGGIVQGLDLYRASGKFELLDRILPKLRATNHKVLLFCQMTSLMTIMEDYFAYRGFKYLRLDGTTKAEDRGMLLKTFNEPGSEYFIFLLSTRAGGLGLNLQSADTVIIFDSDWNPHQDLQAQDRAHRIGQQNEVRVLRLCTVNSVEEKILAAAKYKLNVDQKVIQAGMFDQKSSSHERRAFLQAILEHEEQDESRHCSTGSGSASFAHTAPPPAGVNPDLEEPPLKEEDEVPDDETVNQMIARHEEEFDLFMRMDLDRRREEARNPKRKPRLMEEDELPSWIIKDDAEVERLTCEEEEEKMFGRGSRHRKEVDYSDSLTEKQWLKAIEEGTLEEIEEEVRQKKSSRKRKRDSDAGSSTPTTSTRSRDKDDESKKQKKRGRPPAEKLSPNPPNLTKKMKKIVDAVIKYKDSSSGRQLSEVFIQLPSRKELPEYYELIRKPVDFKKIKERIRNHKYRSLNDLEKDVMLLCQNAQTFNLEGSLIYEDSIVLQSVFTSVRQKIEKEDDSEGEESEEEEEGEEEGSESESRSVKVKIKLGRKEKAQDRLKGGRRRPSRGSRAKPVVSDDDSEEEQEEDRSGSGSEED

Compound | pEC50 (VCaP cells) | Percent SMARCA4 degradation at 0.1 µM (SMARCA4) [%] | Percent degradation SMARCA2 (SMARCA2) [%] | Percent degradation SMARCA4 (SMARCA4) [%]
Cc1ncsc1-c1ccc([C@H](C)NC(=O)[C@@H]2C[C@@H](O)CN2C(=O)[C@@H](NC(=O)CN2CCC(c3ccc(-c4cc(-c5ccccc5O)nnc4N)cc3)C2)C(C)(C)C)cc1 (stereo partly drawn) [Compound 51, (2S,4R)-1-((2S)-2-(2-(3-(4-(3-amino-6-(2-hydroxyphenyl)pyridazin-4-yl)phenyl)pyrrolidin-1-yl)acetamido)-3,3-dimethylbutanoyl)-4-hydroxy-N-((S)-1-(4-(4-methylthiazol-5-yl)phenyl)ethyl)pyrrolidine-2-carboxamide] | 7.00 to 8.00 | 24 | 95 | 
Cc1ncsc1-c1ccc([C@H](C)NC(=O)[C@@H]2C[C@@H](O)CN2C(=O)[C@@H](NC(=O)CN2CCN(c3ccc(-c4cc(-c5ccccc5O)nnc4N)cc3)C(=O)C2)C(C)(C)C)cc1 [Compound 39, (2S,4R)-1-((S)-2-(2-(4-(4-(3-amino-6-(2-hydroxyphenyl)pyridazin-4-yl)phenyl)-3-oxopiperazin-1-yl)acetamido)-3,3-dimethylbutanoyl)-4-hydroxy-N-((S)-1-(4-(4-methylthiazol-5-yl)phenyl)ethyl)pyrrolidine-2-carboxamide] | < 7.00 | 0 | 78 | 
Cc1ncsc1-c1ccc([C@H](C)NC(=O)[C@@H]2C[C@@H](O)CN2C(=O)[C@@H](NC(=O)CN2CCC(c3ccc(-c4cc(-c5ccccc5O)nnc4N)cc3)CC2C)C(C)(C)C)cc1 (mixture of isomers) [Compound 35, (2S,4R)-1-((2S)-2-(2-(4-(4-(3-amino-6-(2-hydroxyphenyl)pyridazin-4-yl)phenyl)-2-methylpiperidin-1-yl)acetamido)-3,3-dimethylbutanoyl)-4-hydroxy-N-((S)-1-(4-(4-methylthiazol-5-yl)phenyl)ethyl)pyrrolidine-2-carboxamide] | > 8.00 | 88 | 97 | 
Cc1ncsc1-c1ccc([C@H](C)NC(=O)[C@@H]2C[C@@H](O)CN2C(=O)[C@@H](NC(=O)C2CCC(c3ccc(-c4cc(-c5ccccc5O)nnc4N)cc3)CC2)C(C)(C)C)cc1 (single isomer, unassigned) [Compound 42] | > 8.00 |  | 99 | 94
Cc1ncsc1-c1ccc([C@H](C)NC(=O)[C@@H]2C[C@@H](O)CN2C(=O)[C@@H](NC(=O)C(C)N2CCC(c3ccc(-c4cc(-c5ccccc5O)nnc4N)cc3)CC2)C(C)(C)C)cc1 (single isomer, unassigned) [Compound 34] | < 7.00 |  | 91 | 0
Cc1ncsc1-c1ccc([C@H](C)NC(=O)[C@@H]2C[C@@H](O)CN2C(=O)[C@@H](NC(=O)CCCC#Cc2ccc(-c3cc(-c4ccccc4O)nnc3N)cc2)C(C)(C)C)cc1 [Compound 19, (2S,4R)-1-((S)-2-(6-(4-(3-amino-6-(2-hydroxyphenyl)pyridazin-4-yl)phenyl)hex-5-ynamido)-3,3-dimethylbutanoyl)-4-hydroxy-N—((S)-1-(4-(4-methylthiazol-5-yl)phenyl)ethyl)pyrrolidine-2-carboxamide] | > 8.00 | 96 | 96 | 
Cc1ncsc1-c1ccc([C@H](C)NC(=O)[C@@H]2C[C@@H](O)CN2C(=O)[C@@H](NC(=O)Cn2ccc(-c3ccc(-c4cc(-c5ccccc5O)nnc4N)cc3)c2)C(C)(C)C)cc1 [Compound 50, (2S,4R)-1-((S)-2-(2-(3-(4-(3-amino-6-(2-hydroxyphenyl)pyridazin-4-yl)phenyl)-1H-pyrrol-1-yl)acetamido)-3,3-dimethylbutanoyl)-4-hydroxy-N-((S)-1-(4-(4-methylthiazol-5-yl)phenyl)ethyl)pyrrolidine-2-carboxamide] | < 7.00 | 0 | 85 | 
Cc1ncsc1-c1ccc([C@H](C)NC(=O)[C@@H]2C[C@@H](O)CN2C(=O)C(c2cc(OCCOc3ccc(-c4cc(-c5ccccc5O)nnc4N)cc3)no2)C(C)C)cc1 (stereo partly drawn) [Compound 24, (2S,4R)-1-(2-(3-(2-(4-(3-amino-6-(2-hydroxyphenyl)pyridazin-4-yl)phenoxy)ethoxy)isoxazol-5-yl)-3-methylbutanoyl)-4-hydroxy-N—((S)-1-(4-(4-methylthiazol-5-yl)phenyl)ethyl)pyrrolidine-2-carboxamide] | > 8.00 | 96 | 95 | 
Cc1ncsc1-c1ccc([C@H](C)NC(=O)[C@@H]2C[C@@H](O)CN2C(=O)[C@@H](NC(=O)CN2CCN(c3ccc(-c4cc(-c5ccccc5O)nnc4N)cn3)CC2)C(C)(C)C)cc1 [Compound 25, (2S,4R)-1-((S)-2-(2-(4-(5-(3-amino-6-(2-hydroxyphenyl)pyridazin-4-yl)pyridin-2-yl)piperazin-1-yl)acetamido)-3,3-dimethylbutanoyl)-4-hydroxy-N—((S)-1-(4-(4-methylthiazol-5-yl)phenyl)ethyl)pyrrolidine-2-carboxamide] | > 8.00 | 92 | 97 | 
Cc1ncsc1-c1ccc([C@H](C)NC(=O)[C@@H]2C[C@@H](O)CN2C(=O)[C@@H](NC(=O)CC2CCC(c3ccc(-c4cc(-c5ccccc5O)nnc4N)cc3)CC2)C(C)(C)C)cc1 (single isomer, unassigned) [Compound 44] | > 8.00 | 89 | 98 | 
Cc1ncsc1-c1ccc([C@H](C)NC(=O)[C@@H]2C[C@@H](O)CN2C(=O)[C@@H](NC(=O)CC2CCC(c3ccc(-c4cc(-c5ccccc5O)nnc4N)cc3)CC2)C(C)(C)C)cc1 (mixture of isomers) [Compound 43, (2S,4R)-1-((S)-2-(2-(4-(4-(3-amino-6-(2-hydroxyphenyl)pyridazin-4-yl)phenyl)cyclohexyl)acetamido)-3,3-dimethylbutanoyl)-4-hydroxy-N-((S)-1-(4-(4-methylthiazol-5-yl)phenyl)ethyl)pyrrolidine-2-carboxamide] | > 8.00 | 86 | 97 | 
Cc1ncsc1-c1ccc([C@H](C)NC(=O)[C@@H]2C[C@@H](O)CN2C(=O)[C@@H](NC(=O)CC#Cc2ccc(-c3cc(-c4ccccc4O)nnc3N)cc2)C(C)(C)C)cc1 [Compound 21, (2S,4R)-1-((S)-2-(4-(4-(3-amino-6-(2-hydroxyphenyl)pyridazin-4-yl)phenyl)but-3-ynamido)-3,3-dimethylbutanoyl)-4-hydroxy-N-((S)-1-(4-(4-methylthiazol-5-yl)phenyl)ethyl)pyrrolidine-2-carboxamide] | < 7.00 | 71 | 97 | 
Cc1ncsc1-c1ccc([C@H](C)NC(=O)[C@@H]2C[C@@H](O)CN2C(=O)[C@@H](c2cc(-c3ccc(-c4cc(-c5ccccc5O)nnc4N)cc3)no2)C(C)C)cc1 [Compound 6, (2S,4R)-1-((R)-2-(3-(4-(3-amino-6-(2-hydroxyphenyl)pyridazin-4-yl)phenyl)isoxazol-5-yl)-3-methylbutanoyl)-4-hydroxy-N—((S)-1-(4-(4-methylthiazol-5-yl)phenyl)ethyl)pyrrolidine-2-carboxamide] | 7.00 to 8.00 | 85 | 100 | 
Cc1ncsc1-c1ccc([C@H](C)NC(=O)[C@@H]2C[C@@H](O)CN2C(=O)[C@@H](NC(=O)CN2CCN(c3ccc(-c4cc(-c5ccccc5O)nnc4N)c(F)c3)CC2)C(C)(C)C)cc1 [Compound 28, (2S,4R)-1-((S)-2-(2-(4-(4-(3-amino-6-(2-hydroxyphenyl)pyridazin-4-yl)-3-fluorophenyl)piperazin-1-yl)acetamido)-3,3-dimethylbutanoyl)-4-hydroxy-N—((S)-1-(4-(4-methylthiazol-5-yl)phenyl)ethyl)pyrrolidine-2-carboxamide] | 7.00 to 8.00 | 67 | 96 | 
